Measurements published in patent publication EP2832223A1, “HERBICIDAL COMPOSITION” (Ishihara Sangyo Kaisha, Ltd., priority 2012, dated 2013).

How the values were obtained:
Assay type in all cases: in vivo
[1] = tested on: prickly sida (Sida spinosa L.); assay: Test Example 10: pot test, soil treatment, visual growth inhibition; details: read-out: Growth inhibition rate (%) of prickly sida Measured value
Procedure: (§1) Upland field soil was put into a 1/300,000 ha pot, and seeds of prickly sida (Sida spinosa L.) were sown. On the next day, predetermined amounts of ONEHOPE NYUZAI (tradename), Click (tradename), Spectrum (tradename), Callisto (tradename) and Clio (tradename) were diluted with water (in an amount corresponding to 1,000 L/ha) and applied for soil treatment by a small sprayer.
(§2) On the 28th day after treatment, the state of growth of the prickly sida was visually observed to determine the growth inhibition rate (%). The growth inhibition rate (%) (measured value) and the growth inhibition rate (%) calculated in the same manner as in the above Test Example 1 are shown in Table 10.

[2] = tested on: wild oat (Avena fatua L.); assay: Test Example 2: pot test, soil treatment, visual growth inhibition; details: 50 g/ha, 28th day after treatment, read-out: Growth inhibition rate (%) of wild oat Measured value
Procedure: (§3) Upland field soil was put into a 1/500,000 ha pot, and seeds of wild oat (Avena fatua L.) were sown. On the next day, predetermined amounts of ONEHOPE NYUZAI (tradename), Click (tradename) and SC formulation containing mesotrione as an active ingredient (tradename: Callisto, manufactured by Syngenta) were diluted with water (in an amount corresponding to 1,000 L/ha) and applied for soil treatment by a small sprayer.
as §2, with “wild oat” for “prickly sida”, “2.” for “10.”

[3] = tested on: velvetleaf (Abutilon theophrasti Medic.); assay: Test Example 16: pot test, soil and foliar treatment, visual growth inhibition; details: read-out: Growth inhibition rate (%) of velvetleaf Measured value
Source text: (§4) Upland field soil was put into a 1/1,000,000 ha pot, and seeds of velvetleaf (Abutilon theophrasti Medic.) were sown. When the velvetleaf reached 4.0 to 4.3-leaf stage, seeds of velvetleaf were further sown in the same pot assuming conditions such that weeds would later grow. Three days later, predetermined amounts of ONEHOPE NYUZAI (tradename), Click (tradename), Callisto (tradename), Mikado (tradename), a wettable powder containing bicyclopyrone as an active ingredient and Clio (tradename) were diluted with water in an amount corresponding to 300 L/ha and applied for soil treatment and for foliar treatment by a small sprayer.
as §2, with “29th” for “28th”, “velvetleaf” for “prickly sida”, “16.” for “10.”

[4] = tested on: velvetleaf (Abutilon theophrasti Medic.); assay: Test Example 14: pot test, soil and foliar treatment, visual growth inhibition; details: read-out: Growth inhibition rate (%) of velvetleaf Measured value
Source text: as §4, with “On the next day,” for “Three days later,”
as §2, with “31 st” for “28th”, “velvetleaf” for “prickly sida”, “14.” for “10.”

[5] = tested on: Japanese millet (Echinochloa utilis Ohwi et Yabuno); assay: Test Example 5: pot test, soil treatment, visual growth inhibition; details: soil, read-out: Growth inhibition rate (%) of Japanese millet Measured value
Procedure: as §3, with “1/300,000” for “1/500,000”, “Japanese millet (Echinochloa utilis Ohwi et Yabuno)” for “wild oat (Avena fatua L.)”, “topramezone” for “mesotrione”, “Clio,” for “Callisto,”, “BASF)” for “Syngenta)”
as §2, with “Japanese millet” for “prickly sida”, “5.” for “10.”

[6] = tested on: rostrate sesbania (Sesbania rostrata Bremek. & Oberm.); assay: Test Example 8: pot test, soil treatment, visual growth inhibition; details: soil, read-out: Growth inhibition rate (%) of rostrate sesbania Measured value
Procedure: as §1, with “rostrate sesbania (Sesbania rostrata Bremek. & Oberm.)” for “prickly sida (Sida spinosa L.)”, “Spectrum” for “Spectrum (tradename), Callisto”
as §2, with “rostrate sesbania” for “prickly sida”, “8.” for “10.”

[7] = tested on: guinea grass (Panicum maximum Jacq.); assay: Test Example 15: pot test, soil and foliar treatment, visual growth inhibition; details: Megathyrsus maximus, 250 g/ha, 31st day after treatment, read-out: Growth inhibition rate (%) of guinea grass Measured value
Procedure: Upland field soil was put into a 1/1,000,000 ha pot, and seeds of guinea grass (Panicum maximum Jacq.) were sown. When the guinea grass reached 5.2 to 6.0-leaf stage, seeds of guinea grass were further sown in the same pot assuming conditions such that weeds would later grow. On the next day, predetermined amounts of ONEHOPE NYUZAI (tradename), Click (tradename), Spectrum (tradename) and Cadou (tradename) were diluted with water in an amount corresponding to 300 L/ha and applied for soil treatment and for foliar treatment by a small sprayer.
as §2, with “31 st” for “28th”, “guinea grass” for “prickly sida”, “15.” for “10.”

[8] = tested on: common cocklebur (Xanthium strumarium L.); assay: Test Example 12: pot test, foliar treatment, visual growth inhibition; details: 250 g/ha, foliar treatment at 4.2 to 4.3-leaf stage, 28th day after treatment, read-out: Growth inhibition rate (%) of common cocklebur Measured value
Procedure: Upland field soil was put into a 1/1,000,000 ha pot, and seeds of common cocklebur (Xanthium strumarium L.) were sown. When the common cocklebur reached 4.2 to 4.3-leaf stage, predetermined amounts of ONEHOPE NYUZAI (tradename), Click (tradename) and water dispersible granules containing flufenacet as an active ingredient (tradename: Cadou, manufactured by Bayer CropScience) were diluted with water (in an amount corresponding to 1,000 L/ha) and applied for foliar treatment by a small sprayer.
as §2, with “common cocklebur” for “prickly sida”, “12.” for “10.”

[9] = tested on: sunn-hemp (Crotalaria juncea L.); assay: Test Example 7: pot test, soil treatment, visual growth inhibition; details: soil, read-out: Growth inhibition rate (%) of sunn-hemp Measured value
Procedure: as §1, with “sunn-hemp (Crotalaria juncea” for “prickly sida (Sida spinosa”, “Mikado” for “Spectrum (tradename), Callisto”, “a wettable powder containing bicyclopyrone prepared in accordance with a conventional formulation method” for “Clio (tradename)”
as §2, with “sunn-hemp” for “prickly sida”, “7.” for “10.”

[10] = tested on: annual ragweed (Ambrosia artemisiifolia L.); assay: Test Example 11: pot test, soil treatment, visual growth inhibition; details: soil, read-out: Growth inhibition rate (%) of annual ragweed Measured value
Procedure: (§5) Upland field soil was put into a 1/300,000 ha pot, and seeds of annual ragweed (Ambrosia artemisiifolia L.) were sown. On the next day, predetermined amounts of ONEHOPE NYUZAI (tradename), Click (tradename), Mikado (tradename) and a wettable powder containing bicyclopyrone prepared in accordance with a conventional formulation method were diluted with water (in an amount corresponding to 1,000 L/ha) and applied for soil treatment by a small sprayer.
as §2, with “annual ragweed” for “prickly sida”, “11.” for “10.”

[11] = tested on: Japanese millet (Echinochloa utilis Ohwi et Yabuno); assay: Test Example 9: pot test, soil treatment, visual growth inhibition; details: soil, read-out: Growth inhibition rate (%) of Japanese millet Measured value
Procedure: as §5, with “Japanese millet (Echinochloa utilis Ohwi et Yabuno)” for “annual ragweed (Ambrosia artemisiifolia L.)”
as §2, with “Japanese millet” for “prickly sida”, “9.” for “10.”

[12] = tested on: green foxtail (Setaria viridis (L.) P.Beauv.); assay: Test Example 3: pot test, soil treatment, visual growth inhibition; details: soil, read-out: Growth inhibition rate (%) of green foxtail Measured value
Procedure: as §3, with “1/1,000,000” for “1/500,000”, “green foxtail (Setaria viridis (L.) P.Beauv.)” for “wild oat (Avena fatua L.)”, “sulcotrione” for “mesotrione”, “Mikado,” for “Callisto,”, “Bayer CropScience)” for “Syngenta)”
as §2, with “27th” for “28th”, “green foxtail” for “prickly sida”, “3.” for “10.”

[13] = tested on: korean lespedeza (Kummerowia stipulacea (Maxim.) Makino); assay: Test Example 6: pot test, soil treatment, visual growth inhibition; details: soil, read-out: Growth inhibition rate (%) of korean lespedeza Measured value
Procedure: as §5, with “korean lespedeza (Kummerowia stipulacea (Maxim.) Makino)” for “annual ragweed (Ambrosia artemisiifolia L.)”
as §2, with “14th” for “28th”, “korean lespedeza” for “prickly sida”, “6.” for “10.”

CS(=O)(=O)c1ccc(C(=O)C2C(=O)CCCC2=O)c([N+](=O)[O-])c1 [Mesotrione, 2-(4-mesyl-2-nitrobenzoyl)cyclohexane-1,3-dione]
inhibition at 25 g/ha ([1]; 25 g/ha, soil treatment, 28th day after treatment): 25% | inhibition at 50 g/ha [2]: 0% | inhibition at 75 g/ha ([3]; 75 g/ha, soil treatment and foliar treatment, 29th day after treatment): 89% | inhibition at 50 g/ha ([4]; 50 g/ha, soil treatment and foliar treatment, 31st day after treatment): 91% | inhibition at 120 g/ha ([4]; 120 g/ha, soil treatment and foliar treatment, 31st day after treatment): 93%

Cc1c(C(=O)c2cnn(C)c2O)ccc(S(C)(=O)=O)c1C1=NOCC1 [Topramezone, [3-(4,5-dihydro-1,2-oxazol-3-yl)-4-mesyl-o-tolyl](5-hydroxy-1-methylpyrazol-4-yl)methanone]
inhibition at 10 g/ha ([1]; soil): 0% | inhibition at 40 g/ha [5]: 30% | inhibition at 20 g/ha [3]: 50% | inhibition at 10 g/ha [4]: 8% | inhibition at 60 g/ha [4]: 65% | inhibition at 100 g/ha [6]: 80%

CC(C)N(C(=O)COc1nnc(C(F)(F)F)s1)c1ccc(F)cc1 [Flufenacet, 4'-fluoro-N-isopropyl-2-[5-(trifluoromethyl)-1,3,4-thidiazol-2-yloxy]acetanilide]
inhibition at 250 g/ha [7]: 50% | inhibition at 250 g/ha [8]: 0%

CS(=O)(=O)c1ccc(C(=O)C2C(=O)CCCC2=O)c(Cl)c1 [Sulcotrione, 2-(2-chloro-4-mesylbenzoyl)cyclohexane-1,3-dione]
inhibition at 50 g/ha [9]: 10% | inhibition at 200 g/ha [3]: 88% | inhibition at 100 g/ha [4]: 88% | inhibition at 300 g/ha [4]: 90% | inhibition at 2000 g/ha [10]: 85% | inhibition at 50 g/ha [11]: 20% | inhibition at 300 g/ha [12]: 5% | inhibition at 1000 g/ha [13]: 15%
